Experiment [1] has as its system TXB2. In words: Rat Whole Blood Assay (A23187-stimulated TXB2). It is filed as cell-based. As to conditions: A23187 5 μM. The procedure: Fresh blood was collected in heparinized tubes by cardiac puncture of male Sprague-Dawley rats. Aliquots of blood (0.6 mL) were incubated with either 6 μL solvent (DMSO), or 6 μL of test compounds at various concentrations for 15 minutes at 37° C. This was followed by incubation of the blood with 6 μL of calcium ionophore, A23187 (Sigma C-7522) diluted in DMSO for 10 min at 37° C. The final concentration of A23187 was 5 μM. DMSO (6 μL) was added in the unstimulated controls. The reactions were stopped by mixing 60 μL cold EDTA to give a final concentration of 20 mM. The blood was centrifuged at 6,500 rpm for 10 min on a microcentrifuge to obtain plasma. A 70 μL aliquot of plasma was mixed with 400 μL cold methanol for protein precipitation. After incubation at −80° C. for 30 min, the supernatant was obtained by centrifuging at 6,500 rpm for 10 min, and was assayed for TXB2 according to the manufacturer's procedure (Assay Designs, Inc.'s ELISA kit #900-002).

The target in experiment [2] is T1, cPLA2α (Homo sapiens, UniProt P47712).
T1 sequence (P47712 1-749): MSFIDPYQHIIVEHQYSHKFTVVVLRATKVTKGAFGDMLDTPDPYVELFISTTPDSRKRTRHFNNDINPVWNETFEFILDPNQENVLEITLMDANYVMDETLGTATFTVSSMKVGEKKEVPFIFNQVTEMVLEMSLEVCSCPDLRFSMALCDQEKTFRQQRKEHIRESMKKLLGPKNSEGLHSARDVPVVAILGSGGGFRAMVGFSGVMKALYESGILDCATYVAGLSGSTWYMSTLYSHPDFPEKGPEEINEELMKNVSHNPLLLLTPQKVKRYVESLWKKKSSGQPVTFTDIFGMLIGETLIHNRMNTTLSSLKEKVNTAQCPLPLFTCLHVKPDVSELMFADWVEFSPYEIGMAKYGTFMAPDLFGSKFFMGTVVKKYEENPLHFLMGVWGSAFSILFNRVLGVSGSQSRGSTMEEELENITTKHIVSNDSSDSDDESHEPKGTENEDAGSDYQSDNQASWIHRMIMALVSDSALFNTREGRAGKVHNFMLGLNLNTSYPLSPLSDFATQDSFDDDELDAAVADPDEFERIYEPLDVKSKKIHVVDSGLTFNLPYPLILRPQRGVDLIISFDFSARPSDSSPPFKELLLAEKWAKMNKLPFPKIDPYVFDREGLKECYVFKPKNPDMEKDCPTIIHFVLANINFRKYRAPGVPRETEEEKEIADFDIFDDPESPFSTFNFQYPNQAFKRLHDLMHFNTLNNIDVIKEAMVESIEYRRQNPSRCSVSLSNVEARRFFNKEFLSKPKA
Kind of experiment: GLU Micelle Assay. Type of experiment: biochemical. How it is done: The assay was carried in a 96-well format using a fluorescent plate reader with a 355 nm excitation filter and a 460 nm emission filter (Lab Systems Fluoroscan II, Helsinki, Finland). The assay buffer contained 940 μM Triton X-100, 50 mM Hepes pH 7.4, 0.3 mM EDTA, 1 mM CaCl2 and 300 mM KCl. DTPC (1,2-O-tetradecyl-sn-glycero-3-phosphocholine, Avanti) at a final concentration of 120 μM was added the day of the experiment and GLU (7-Hydroxycoumarinyl-γ-linolenate, Biomol Research Lab, Inc.) at a final concentration of 90 μM was added immediately prior to each assay.
Compounds (10 μL) dissolved in DMSO were placed in duplicate wells of a black 96-well plate. Wells corresponding to the positive and negative controls contained DMSO without inhibitors. Just prior to the experiment, 200 μL assay buffer containing 90 μM GLU and 120 μM DTPC was added to all wells in the assay plate. Assay buffer (50 μL) was added to the negative, and 50 μL cPLA2α solution ([…] in assay buffer) was added to all other wells to initiate the reaction. The final concentration of enzyme was 1 μg/ml. The content of each well was mixed gently during the addition of the enzyme, and the plate was rapidly transferred to the fluorescent plate reader. The increase in fluorescence was read every 4 min for 84 min. The slope of the resulting line was determined and the inhibition was calculated using the equation below: Percent Inhibition=[1−(slope with inhibitor−slope negative control)/(slope positive control−slope negative control)]×100 Rat Whole Blood Assay

As usually defined, the IC50 is the concentration needed to halve the response being measured. Lower therefore signals greater potency.

For `O=C(O)c1ccc(CCCc2c(CCNS(=O)(=O)Cc3ccccc3-c3ccccc3OC(F)(F)F)n(C(c3ccccc3)c3ccccc3)c3ccc(Cl)cc23)cc1` [Example 36, 4-[3-(5-chloro-1-(diphenylmethyl)-2-{2-[({[2′-(trifluoromethoxy)biphenyl-2-yl]methyl}sulfonyl)amino]ethyl}-1H-indol-3-yl)propyl]benzoic acid], the half-inhibitory concentration (IC50) in experiment [1] (Rattus norvegicus) worked out at 70 nM; in experiment [2], 31 nM.
Regarding `CC(c1ccccc1C(F)(F)F)S(=O)(=O)NCCc1c(CCCc2ccc(C(=O)O)cc2)c2cc(Cl)ccc2n1C(c1ccccc1)c1ccccc1` (stereo not drawn) [Example 23, 4-[3-(5-chloro-1-(diphenylmethyl)-2-{2-[({1-[2-(trifluoromethyl)phenyl]ethyl}sulfonyl)amino]ethyl}-1H-indol-3-yl)propyl]benzoic acid], the IC50 in experiment [1] (Rattus norvegicus) was found to be 40 nM; in experiment [2], 105 nM.
As for `N#Cc1ccccc1-c1ccccc1CS(=O)(=O)NCCc1c(CCCc2ccc(C(=O)O)cc2)c2cc(Cl)ccc2n1C(c1ccccc1)c1ccccc1` [Example 37, 4-{3-[5-chloro-2-[2-({[(2′-cyanobiphenyl-2-yl)methyl]sulfonyl}amino)ethyl]-1-(diphenylmethyl)-1H-indol-3-yl]propyl}benzoic acid], the values for the half-inhibitory concentration (IC50) in experiment [1] (Rattus norvegicus) and in experiment [2] were 30 nM and 25 nM, respectively.
Taken in the same sequence, the figures for `O=C(O)c1ccc(CCCc2c(CCNS(=O)(=O)Cc3ccccc3O)n(C(c3ccccc3)c3ccccc3)c3ccc(Cl)cc23)cc1` [Example 40, 4-{3-[5-chloro-1-(diphenylmethyl)-2-(2-{[(2-hydroxybenzyl)sulfonyl]amino}ethyl)-1H-indol-3-yl]propyl}benzoic acid] were 60 nM and 72 nM.
On to `O=C(O)c1ccc(OCCc2c(CCNS(=O)(=O)Cc3ccccc3OCc3ccccc3)n(C(c3ccccc3)c3ccccc3)c3ccc(Cl)cc23)cc1` [Example 1, 4-{2-[2-[2-({[2-(benzyloxy)benzyl]sulfonyl}amino)ethyl]-5-chloro-1-(diphenylmethyl)-1H-indol-3-yl]ethoxy}benzoic acid], for which the figures for the 50% inhibitory concentration (IC50) in experiment [1] (Rattus norvegicus) and in experiment [2] were 140 nM and 260 nM, respectively.
As for `COC(=O)c1ccccc1CS(=O)(=O)NCCc1c(CCCc2ccc(C(=O)O)cc2)c2cc(Cl)ccc2n1C(c1ccccc1)c1ccccc1` [Example 13, 4-(3-{5-chloro-1-(diphenylmethyl)-2-[2-({[2-(methoxycarbonyl)benzyl]sulfonyl}amino)ethyl]-1H-indol-3-yl}propyl)benzoic acid], the figures for the IC50 in experiment [1] (Rattus norvegicus) and in experiment [2] were 30 nM and 26 nM, respectively.
As for `CN(CCc1c(CCCc2ccc(C(=O)O)cc2)c2cc(Cl)ccc2n1C(c1ccccc1)c1ccccc1)S(=O)(=O)Cc1ccccc1C(F)(F)F` [Example 11, 4-(3-{5-chloro-1-(diphenylmethyl)-2-[2-(methyl{[2-(trifluoromethyl)benzyl]sulfonyl}amino)ethyl]-1H-indol-3-yl}propyl)benzoic acid], the IC50 in experiment [1] (Rattus norvegicus) turned out to be 380 nM; in experiment [2] it was 280 nM.
On to `O=C(O)c1ccc(CCCc2c(CCNS(=O)(=O)Cc3c(C(F)(F)F)cccc3C(F)(F)F)n(C(c3ccccc3)c3ccccc3)c3ccc(Cl)cc23)cc1` [Example 12, 4-{3-[2-[2-({[2,6-bis(trifluoromethyl)benzyl]sulfonyl}amino)ethyl]-5-chloro-1-(diphenylmethyl)-1H-indol-3-yl]propyl}benzoic acid], for which the IC50 in experiment [1] (Rattus norvegicus) is 40 nM; in experiment [2], 21 nM.
For `Cc1cccc([N+](=O)[O-])c1CS(=O)(=O)NCCc1c(CCOc2ccc(C(=O)O)cc2)c2cc(Cl)ccc2n1C(c1ccccc1)c1ccccc1` [Example 4, 4-(2-{1-benzhydryl-5-chloro-2-[2-methyl-6-nitro-phenylmethanesulfonylamino)-ethyl-1-H-indol-3-yl}ethoxy)-benzoic acid], the half-inhibitory concentration (IC50) was 20 nM in experiment [1] and 54 nM in experiment [2].
For `CN1CCN(Cc2ccccc2CS(=O)(=O)NCCc2c(CCCc3ccc(C(=O)O)cc3)c3cc(Cl)ccc3n2C(c2ccccc2)c2ccccc2)CC1` [Example 22, 4-[3-(5-chloro-1-(diphenylmethyl)-2-{2-[({2-[(4-methylpiperazin-1-yl)methyl]benzyl}sulfonyl)amino]ethyl}-1H-indol-3-yl)propyl]benzoic acid], the IC50 in experiment [1] (Rattus norvegicus) was 80 nM; in experiment [2], 21 nM.
Regarding `Cc1noc(C)c1-c1ccccc1CS(=O)(=O)NCCc1c(CCCc2ccc(C(=O)O)cc2)c2cc(Cl)ccc2n1C(c1ccccc1)c1ccccc1` [Example 33, 4-{3-[5-chloro-2-[2-({[2-(3,5-dimethylisoxazol-4-yl)benzyl]sulfonyl}amino)ethyl]-1-(diphenylmethyl)-1H-indol-3-yl]propyl}benzoic acid], the IC50 in experiment [1] (Rattus norvegicus) was 20 nM; in experiment [2], 22 nM.
Taken in the same sequence, the figures for `O=Cc1ccccc1CS(=O)(=O)NCCc1c(CCCc2ccc(C(=O)O)cc2)c2cc(Cl)ccc2n1C(c1ccccc1)c1ccccc1` [Example 16, 4-{3-[5-chloro-1-(diphenylmethyl)-2-(2-{[(2-formylbenzyl)sulfonyl]amino}ethyl)-1H-indol-3-yl]propyl}benzoic acid] were 50 nM and 23 nM.
For the molecule `CN(C)c1ccc(-c2ccccc2CS(=O)(=O)NCCc2c(CCCc3ccc(C(=O)O)cc3)c3cc(Cl)ccc3n2C(c2ccccc2)c2ccccc2)cc1` [Example 35, 4-{3-[5-chloro-2-{2-[({[4′-(dimethylamino)biphenyl-2-yl]methyl}sulfonyl)amino]ethyl}-1-(diphenylmethyl)-1H-indol-3-yl]propyl}benzoic acid], the values for the IC50 in experiment [1] (Rattus norvegicus) and in experiment [2] were 50 nM and 27 nM, respectively.
Regarding `O=C(O)c1ccc(CCCc2c(CCNS(=O)(=O)Cc3ccccc3Br)n(C(c3ccccc3)c3ccccc3)c3ccc(Cl)cc23)cc1` [Example 24, 4-{3-[2-(2-{[(2-bromobenzyl)sulfonyl]amino}ethyl)-5-chloro-1-(diphenylmethyl)-1H-indol-3-yl]propyl}benzoic acid], the concentration for half-maximal inhibition (IC50) worked out at 30 nM in experiment [1] (Rattus norvegicus) and 8 nM in experiment [2].
For the molecule `O=C(O)c1ccc(CCCc2c(CCNS(=O)(=O)Cc3c(Br)cccc3Br)n(C(c3ccccc3)c3ccccc3)c3ccc(Cl)cc23)cc1` [Example 7, 4-{3-[5-chloro-2-(2-{[(2,6-dibromobenzyl)sulfonyl]amino}ethyl)-1-(diphenylmethyl)-1H-indol-3-yl]propyl}benzoic acid], the 50% inhibitory concentration (IC50) stood at 30 nM in experiment [1] (Rattus norvegicus) and 18 nM in experiment [2].
